Literature values as cited in US20080274215A1, “COMPOSITION FOR TREATMENT OF COLD AND FLU” (NORTHERN HOLDINGS INC., priority 2007, published 2008).

For `C=C1CCC2C(C)(CO)C(O)CCC2(C)C1C/C=C1/C(=O)OCC1O` (stereo not shown) [AG, 3-[2-[decahydro-6-hydroxy-5-(hydroxymethyl)-5,8a-dimethyl-2-methylene-1-napthalenyl]ethylidene]dihydro-4-hydroxy-2(3H)-furanone], the solubility in water is given as “sparingly soluble”.
